Experiment: method code SF-AS, from Smul'skii, S.; Bogatskii, A.; Andronati, S.; Vikhlyaev, Yu.; Zhilina, Z. (1977). Lipophilic nature of quinazolin-2-ones and 1,2-dihydro-3H-1,4-benzodiazepin-2-ones. Otdel. Khim. Nauk., 235(2)369-371.
Settings: pH 7.4

Structure (SMILES): CC1N=C(c2ccccc2)c2cc(Cl)ccc2NC1=O (configuration not stated)
- logD: 3.25

Structure (SMILES): Cc1ccc2c(c1)=C(c1ccccc1)N(O)CC(=O)N=2
- logD: 1.13

Structure (SMILES): Cc1ccc2[nH]c(=O)nc(-c3ccccc3)c2c1
- logD: 2.32

Structure (SMILES): O=c1nc(-c2ccccc2)c2cc(Cl)ccc2[nH]1
- logD: 2.53

Structure (SMILES): CC(C)C1N=C(c2ccccc2)c2cc(Br)ccc2NC1=O (configuration not stated)
- logD: 4.18

Structure (SMILES): O=c1nc(-c2ccccc2)c2cc(Br)ccc2[nH]1
- logD: 2.71

Structure (SMILES): CC(=O)OC1N=C(c2ccccc2)c2cc(Cl)ccc2NC1=O (configuration not stated)
- logD: 2.6

Structure (SMILES): CCCC1N=C(c2ccccc2)c2cc(Cl)ccc2NC1=O (configuration not stated)
- logD: 4.14

Structure (SMILES): O=C1CN=C(c2ccccc2Cl)c2cc(Br)ccc2N1
- logD: 3.3

Structure (SMILES): CCC1N=C(c2ccccc2)c2cc(Br)ccc2NC1=O (configuration not stated)
- logD: 3.79

Structure (SMILES): O=C1CN=C(c2ccccc2)c2cc(Br)ccc2N1
- logD: 3.11

Structure (SMILES): O=C1Nc2ccc(Br)cc2C(c2ccccc2Cl)=NC1O (configuration not stated)
- logD: 2.54

Structure (SMILES): CC(C)C1N=C(c2ccccc2)c2cc(Cl)ccc2NC1=O (configuration not stated)
- logD: 4

Structure (SMILES): CC(=O)OC1N=C(c2ccccc2)c2cc(Br)ccc2NC1=O (configuration not stated)
- logD: 2.76

Structure (SMILES): O=c1nc(-c2ccccc2)c2ccccc2[nH]1
- logD: 1.91

Structure (SMILES): CC1N=C(c2ccccc2)c2cc(Cl)ccc2N(C)C1=O (configuration not stated)
- logD: 3.68

Structure (SMILES): O=C1CN(O)C(c2ccccc2)=c2cc(Br)ccc2=N1
- logD: 1.53
